{"source": "patent US5482930A", "about": "“Anti-inflammatory composition and method with des-Tyr dynorphin and analogues” (The Regents of the University of California, priority 1993, dated 1996)", "key": {"[1]": {"experiment": "Blood pressure and oxygenation after i.v. dose", "format": "in vivo, rat", "conditions": "0.2 mg/kg i.v."}, "[2]": {"system": "thermal edema of the hind paw", "experiment": "Heat-induced swelling and edema of the rat hind paw (58° C. water, one minute)", "format": "in vivo", "conditions": "for ED50, reducing thermal edema: i.v., anesthetized rat, hind paw 58° C. water one minute; for anti-inflammatory effect (FIG. 1): FIG. 1 legend", "procedure": "In one bioassay, dynorphin A (2-17), synthesized by standard solid phase methods, was dissolved in sterile saline and injected intravenously via a branch of the femoral vein at various doses into an anesthetized rat. Ten minutes later a hind paw was immersed in 58° C. water for one minute. Thirty minutes after exposure to heat, the paw was removed at the ankle joint and weighed. The percent increase in weight of the heated paw relative to the unheated paw was taken as the index of inflammatory thermal edema. The general principles of this method have been discussed by Wei and Thomas, Ann. Rev. of Pharmacol. and Toxicol., 33, pp. 91-108 (1993).\nAnesthetized rats were injected intravenously (i.v.) with saline (1 ml/kg) or naloxone hydrochloride ([…]) 5 minutes prior to i.v. injection with saline ([…]), dynorphin A (2-17) (0.5 mg/kg), or N-acetyldynorphin A (6-12 )-amide (3 mg/kg). Ten minutes after the second injection, the rat's hind paw was immersed in 58° C. water for one minute and 30 minutes later the animals were euthanized and the heated and unheated paw weights were measured. After saline/saline or naloxone HCl/saline, the percent increase in the weight of the heated paw, relative to the unheated paw, were 104±10% and 98±9%, respectively. The percent increases for the saline/dynorphin A (2-17) and naloxone HCl/dynorphin A (2-17) groups were 26±6% and 26±5%, respectively. The percent increases for the saline/N-acetyl-dynorphin A (6-12) amide and naloxone HCl/N-acetyl-dynorphin A (6-12) amide groups were 21±3% and 27±12%, respectively."}, "[3]": {"experiment": "Direct comparison of dynorphin A analogs with an amide or a carboxyl C-terminus (ED50, bioassay not given)", "format": "in vivo", "conditions": "i.v.; amide versus carboxyl C-terminus", "procedure": "Similar results were obtained for D-Ala^2 -dynorphin A (1-17) amide, with an ED50 value of 0.5 mg/kg i.v. versus a value of 1.0 mg/kg i.v. for D-Ala^2 -dynorphin A (1-17)."}, "[4]": {"system": "neurogenic inflammation", "conditions": "intravenous route; relative to saline-injected controls; cited from earlier work"}, "[5]": {"system": "edema in the anesthetized rat's paw after thermal injury", "conditions": "3.75 mg/kg administered intravenously; cited from earlier work"}}, "note": "Where a name gives a salt, the structure may show the parent alone. Residues, ends and D or L forms follow the SMILES beside them."}
{"compound": "CC[C@H](C)[C@H](NC(=O)[C@H](CCCNC(=N)N)NC(=O)[C@H](CCCNC(=N)N)NC(=O)[C@H](CC(C)C)NC(=O)[C@H](Cc1ccccc1)NC(=O)CNC(=O)CN)C(=O)N[C@@H](CCCNC(=N)N)C(=O)N1CCC[C@H]1C(=O)N[C@@H](CCCCN)C(=O)N[C@@H](CC(C)C)C(=O)N[C@@H](CCCCN)C(=O)N[C@@H](Cc1c[nH]c2ccccc12)C(=O)N[C@@H](CC(=O)O)C(=O)N[C@@H](CC(N)=O)C(=O)N[C@@H](CCC(N)=O)C(=O)O", "note": "[Embodiment NO:1, G-G-F-L-R-R-I-R-P-K-L-K-W-D-N-Q]", "values": [{"measurement": "cyanosis / oxygenation", "setting": "[1]", "result": "no evidence of cyanosis"}, {"measurement": "effect on blood pressure", "setting": "[1]", "result": "slight fall in blood pressure"}, {"measurement": "duration of fall in blood pressure", "setting": "[1]; then mean arterial pressure returned to baseline", "result": "10 to 15", "unit": "min"}]}
{"compound": "CC[C@H](C)[C@H](NC(=O)[C@H](CCCNC(=N)N)NC(=O)[C@H](CCCNC(=N)N)NC(C)=O)C(=O)N[C@@H](CCCNC(=N)N)C(=O)N1CCC[C@H]1C(=O)N[C@@H](CCCCN)C(=O)N[C@H](CC(C)C)C(N)=O", "note": "[Embodiment NO:4, Ac-R-R-I-R-P-K-l-NH2] (HELM PEPTIDE1{[ac].R.R.I.R.P.K.[dL].[am]}$$$$V2.0)", "values": [{"measurement": "ED50, reducing thermal edema", "setting": "[2]", "result": "2.2 (1.2-4.1) mg/kg"}]}
{"compound": "C=CCN1CC[C@]23c4c5ccc(O)c4O[C@H]2C(=O)CC[C@@]3(O)[C@H]1C5", "note": "[naloxone HCl, naloxone hydrochloride]", "values": [{"measurement": "percent increase in the weight of the heated paw, relative to the unheated paw", "setting": "[2]; naloxone HCl (4 ml/kg) i.v. then saline, no peptide", "result": "98±9", "unit": "%"}]}
{"compound": "Ac-RRIRPKL-NH2 [Embodiment NO:3, Ac-R-R-I-R-P-K-L-NH2]", "values": [{"measurement": "ED50, reducing thermal edema", "setting": "[2]", "result": "1.4 (0.6-3.7) mg/kg"}, {"measurement": "percent increase in the weight of the heated paw, relative to the unheated paw", "setting": "[2]; naloxone HCl pretreatment, then peptide 3 mg/kg i.v.", "result": "27±12", "unit": "%"}, {"measurement": "antagonism of anti-inflammatory effect by naloxone", "setting": "[2]; peptide 3 mg/kg i.v., naloxone 4 mg/kg i.v.", "result": "not antagonized"}, {"measurement": "percent increase in the weight of the heated paw, relative to the unheated paw", "setting": "[2]; saline pretreatment, then peptide 3 mg/kg i.v.", "result": "21±3", "unit": "%"}]}
{"compound": "D-Ala^2 -dynorphin A (1-17)", "values": [{"measurement": "ED50", "setting": "[3]", "result": 1.0, "unit": "mg/kg"}]}
{"compound": "D-Ala^2 -dynorphin A (1-17) amide", "values": [{"measurement": "ED50", "setting": "[3]", "result": 0.5, "unit": "mg/kg"}]}
{"compound": "D-Ala^2 -dynorphin A (2-17)", "values": [{"measurement": "ED50", "setting": "[3]", "result": 1.2, "unit": "mg/kg"}]}
{"compound": "D-Ala^2 -dynorphin A (2-17) amide", "values": [{"measurement": "ED50", "setting": "[3]", "result": 0.65, "unit": "mg/kg"}]}
{"compound": "dynorphin A (1-10) amide", "values": [{"measurement": "median effective dose (ED50) producing 50% inhibition of dye leakage", "setting": "[4]", "result": "5.0 (3.5-7.2) mg/kg"}]}
{"compound": "dynorphin A (1-13)", "values": [{"measurement": "median effective dose (ED50) producing 50% inhibition of dye leakage", "setting": "[4]", "result": "1.9 (1.5-2.4) mg/kg"}, {"measurement": "prevention of edema after thermal injury", "setting": "[5]", "result": "prevent edema"}, {"measurement": "anti-inflammatory effect (FIG. 1)", "setting": "[2]", "result": "substantially lacking potency"}, {"measurement": "ED50, reducing thermal edema", "setting": "[2]", "result": "3.2 (1.9-5.5) mg/kg"}]}
{"compound": "dynorphin A (1-17)", "values": [{"measurement": "anti-inflammatory effect (FIG. 1)", "setting": "[2]", "result": "substantially lacking potency"}, {"measurement": "ED50, reducing thermal edema", "setting": "[2]", "result": "1.7 (1.2-2.4) mg/kg"}]}
